Data set [1] can be described thus: Stability in rat plasma (autosampler, bench top, freeze/thaw, long-term freezer). Format: in vitro ADME. Here is the method:
Validation was carried out as per US FDA bioanalytical method validation guidelines. The extraction recovery of analytes, through protein precipitation extraction procedure, was determined by comparing the peak areas of extracted plasma (pre-spiked) standard QC samples (n = 6) to those of the post-spiked standards at equivalent concentrations (QC low, QC medium and QC high concentrations for the analytes and 50 ng/mL for IS). Specificity and selectivity was studied by using independent plasma samples from six different rats to investigate the potential interferences at the LC peak region for analyte and IS, using the proposed extraction procedure and chromatographic–MS conditions. Matrix effect was determined by comparing the responses of the post-extracted plasma standard QC samples (n = 6) with the response of analytes from neat standard samples, for all analytes at LLOQ[22]. Calibration curve was constructed using […] calibration standards of LUME and 99–411 and of PPQ and 99–411 (3.9, 7.8, 15.6, 31.25, 62.5, 125, 250 and 500 ng/mL) by spiking 90 μL of pooled drug free rat plasma with the appropriate working standard solution of the analytes (10 μL). The intra-day assay precision and accuracy were estimated by analyzing six replicates at four the QC levels, i.e., 3.9/7.8, 10, 100 and 400 ng/mL,for both the combinations. The inter-assay precision was determined by analyzing the four levels QC samples on three different runs. The criteria for acceptability of the data included accuracy within ± 15% deviation from the nominal values and a precision of within ± 15% relative standard deviation (R.S.D.), except for LLOQ, where it should not exceed ± 20% of accuracy as well as precision. All stability studies were conducted at two concentration levels, i.e. […] The dilution integrity experiment was performed to validate the dilution test to be carried out on higher analyte concentrations (above the upper limit of quantification), which may be encountered during real subject samples analysis. Dilution integrity experiments were carried out by 20 times dilution of plasma samples containing 8000 ng/mL of LUME and 99–411 and PPQ and 99–411 with blank plasma to obtain samples containing 400 ng/mL of the respective combinations.

Data set [2] in a line: In situ single-pass intestinal perfusion permeability study. The settings on record: male, SD, rat, other: single-pass perfusion through the jejunal lumen, rat jejunum, read-out: effective permeability. Format: in vivo. Here is the method: Single-pass intestinal perfusion studies in rats (n = 5 per group) were performed using established methods adapted from the literature. Briefly, male SD rats were fasted overnight for 12 to 16 h with free access to water and anaesthetized using an intra-peritoneal injection of urethane (1 g/kg) and placed on a heated pad to keep normal body temperature. Upon verification of the loss of pain reflex, a midline longitudinal abdominal incision was made, and the lumen of the jejunum (10 cm) was catherised and flushed with 10 ml of saline pre-warmed to 37 °C. The solution of analytes (10 μM) was prepared in perfusion buffer and passed at a flow rate of 0.2 mL/min through the lumen. After allowing 30 min to reach steady-state outlet concentrations, outlet perfusate samples were collected every 15 min for 120 min perfusion period. Phenol red was used as a marker of osmosis/zero permeability. At the end, the length of segment was measured without stretching and finally the animal was euthanized. Samples were analysed by LC-MS/MS after diluting 20 times with mobile phase.

For a further data set, the system named is P-gp. The settings on record: cited from earlier work.
For another data set, the system named is CYP3A4. More on the design: method as in PMID 21503937, PMID 10727880, PMID 11463111. Particulars: cited from earlier work.
Data set [3] is described as follows: Pharmacokinetic interaction study, oral administration alone or in combination in rats. In kind it is in vivo, rat. Particulars: for AUC(0-inf) / CL/F / Cmax / Tmax / Vd/F / half-life / AUC(0-t): rat, plasma, po. On the procedure:
Rats were divided into five groups (n = 5, each); three control groups (LUME 10 mg/kg, oral, suspension in 0.25% Sodium CMC; PPQ 50 mg/kg, oral, solution in triple distilled water; and 99–411 70 mg/kg, oral, suspension in 0.25% Sodium CMC) and two co-administration group (70 mg/kg of oral 99–411 & 10 mg/kg of oral LUME; and 70 mg/kg of oral 99–411 & 50 mg/kg of oral PPQ). The rats were fasted overnight (14–16 h) prior to the experiment but given free access to water. Blood samples were collected from the retro-orbital plexus into heparinized microfuge tubes at 0.25, 0.50, 1, 3, 6, 9, 11, 13, 15, 24, 48, 72 and 120 h post-dosing and plasma was harvested by centrifuging the blood at 15000 × g for 10 min and stored frozen at –70 ± 10 °C until bioanalysis. Plasma data were subjected to non-compartmental pharmacokinetics analysis using WinNonlin (version 5.1, Pharsight Corporation, Mountain View, USA). The pharmacokinetic parameters were compared using student’s t test. […] The relative bioavailability (RB%) was calculated according to equation 1 as follows: […]

In another data set the target is T1, human P-gp (Homo sapiens, UniProt P08183).
T1 construct: purchased BD Gentest (Woburn, MA)
T1 sequence (P08183 whole entry): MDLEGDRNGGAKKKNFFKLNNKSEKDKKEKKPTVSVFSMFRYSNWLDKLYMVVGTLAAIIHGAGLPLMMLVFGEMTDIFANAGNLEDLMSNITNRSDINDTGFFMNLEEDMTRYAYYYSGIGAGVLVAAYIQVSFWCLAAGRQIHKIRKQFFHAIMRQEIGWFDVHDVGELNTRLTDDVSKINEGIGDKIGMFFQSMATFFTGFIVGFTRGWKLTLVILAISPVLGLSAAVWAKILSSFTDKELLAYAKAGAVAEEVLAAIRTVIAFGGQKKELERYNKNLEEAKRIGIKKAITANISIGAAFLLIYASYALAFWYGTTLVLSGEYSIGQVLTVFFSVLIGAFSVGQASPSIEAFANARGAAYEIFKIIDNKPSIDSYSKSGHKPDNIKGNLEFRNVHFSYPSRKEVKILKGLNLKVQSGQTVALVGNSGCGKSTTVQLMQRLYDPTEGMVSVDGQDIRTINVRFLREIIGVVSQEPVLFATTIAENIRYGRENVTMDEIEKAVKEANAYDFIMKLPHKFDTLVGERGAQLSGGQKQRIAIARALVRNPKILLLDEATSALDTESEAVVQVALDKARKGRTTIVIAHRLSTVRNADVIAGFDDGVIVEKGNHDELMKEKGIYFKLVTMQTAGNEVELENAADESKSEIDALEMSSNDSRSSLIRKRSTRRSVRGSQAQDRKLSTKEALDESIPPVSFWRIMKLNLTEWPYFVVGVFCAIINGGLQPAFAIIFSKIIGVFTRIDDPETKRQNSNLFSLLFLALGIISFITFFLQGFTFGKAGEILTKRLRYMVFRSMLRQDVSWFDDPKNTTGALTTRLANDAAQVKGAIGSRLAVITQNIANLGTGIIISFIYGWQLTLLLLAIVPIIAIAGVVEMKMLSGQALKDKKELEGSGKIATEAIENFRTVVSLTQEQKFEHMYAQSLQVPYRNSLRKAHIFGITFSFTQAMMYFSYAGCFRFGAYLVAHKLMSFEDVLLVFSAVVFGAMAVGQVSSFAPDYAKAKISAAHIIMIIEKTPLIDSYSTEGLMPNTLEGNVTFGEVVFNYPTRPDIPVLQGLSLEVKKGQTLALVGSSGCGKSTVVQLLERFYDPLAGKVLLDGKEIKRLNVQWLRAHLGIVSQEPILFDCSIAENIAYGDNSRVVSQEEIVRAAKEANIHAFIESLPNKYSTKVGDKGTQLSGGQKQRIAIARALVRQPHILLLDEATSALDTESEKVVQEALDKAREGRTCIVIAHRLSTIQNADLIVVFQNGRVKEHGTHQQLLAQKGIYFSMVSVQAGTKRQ
Kind of data set: Human P-gp ATPase assay (vanadate-sensitive ATPase activity). Format: biochemical. The settings on record: concentration not given.

The mark [4] stands for this setting: 10 mg/kg, LUME 10 mg/kg oral alone (control), rats.
[5] abbreviates: 10 mg/kg, LUME 10 mg/kg oral co-administered with 99–411 70 mg/kg, rats.
Setting [6] is: 50 mg/kg, PPQ 50 mg/kg oral alone (control), rats.
[7] abbreviates: PPQ 50 mg/kg oral co-administered with 99–411 70 mg/kg, rats.

Molecules are shown by their SMILES. Like-named read-outs stand apart in the source and are kept apart here.

In general, AUC(0-inf) refers to total exposure, with the tail of the curve extrapolated. A word on the CL/F: it is clearance divided by bioavailability, as obtained after extravascular dosing. In general, Cmax refers to the peak of the concentration-time curve. As a reminder, the Tmax is the time from dosing to the highest level. Broadly, the Vd/F is the apparent distribution volume after extravascular dosing. By half-life is commonly meant the time needed for the level to fall by half in the phase considered. As a reminder, the AUC(0-t) is exposure summed from dosing to a finite time, without extrapolation to infinity.

Procedure for human P-gp: A human P-gp ATPase assay was performed according to the manufacturer’s protocol. […] The reaction was initiated by the addition of 20 μL of 12 mM Mg ATP solution and was terminated 20 min later by the addition of 30 μL of stop solution (10% sodium dodecyl sulfate solution). Two hundred microliters of detection reagent (8% ascorbic acid, 0.8% ammonium molybdate, 3 mM zinc acetate) was added, and the mixture was incubated at 37 °C for 20 min. The inorganic phosphate complex was detected by its absorbance at 800 nm and was quantitated by comparing the absorbance with that of phosphate standard. […] The vanadate-sensitive ATP hydrolysis was determined by subtracting the value obtained with the vanadate-coincubated membrane fraction from that obtained with the vanadate-free membrane fraction.

With `CCCCN(CCCC)CC(O)c1cc(Cl)cc2c1-c1ccc(Cl)cc1/C2=C/c1ccc(Cl)cc1` (centres unmarked) [LUME, lumefantrine], the “Accuracy (%) in stability test” value in data set [1] (LUME/99-411 method, 10 ng/mL, 6 h (BT, bench top, room temperature)) turned out to be 91.73%; in data set [1] (LUME/99-411 method, 10 ng/mL, 24 h (AS, autosampler)), 98.45%; in data set [1] (LUME/99-411 method, 10 ng/mL, 15 day at -70 °C), 97.80%; in data set [1] (LUME/99-411 method, 10 ng/mL, FT-3 (three freeze/thaw cycles)), 91.33%; in data set [1] (LUME/99-411 method, 400 ng/mL, 6 h (BT, bench top, room temperature)), 95.94%; in data set [1] (LUME/99-411 method, 400 ng/mL, 24 h (AS, autosampler)), 100.13%. In addition, the “Accuracy (%) in stability test” value in data set [1] (LUME/99-411 method, 400 ng/mL, 15 day at -70 °C) amounted to 101.30%; in data set [1] (LUME/99-411 method, 400 ng/mL, FT-3 (three freeze/thaw cycles)), 100.96%. Further, the Papp at 120 min, 10 μM came to 46.8 ± 13.7 ×10⁻⁶ cm/s in data set [2] (lumefantrine co-perfused with 99–411, 10 μM) and 40.3 ± 4.9 ×10⁻⁶ cm/s in data set [2] (lumefantrine control, 10 μM). Moreover, the P-gp substrate status result with P-gp is on record as “P-gp substrate”. The CYP3A4 substrate status entry with CYP3A4 is recorded as “CYP3A4 substrates”. Moreover, the AUC(0-inf) in data set [3] (setting [4]) is 17400 ± 3290 ng·h/mL; in data set [3] (setting [5]) it was 16500 ± 3510 ng·h/mL. Besides, the figures for the CL/F in data set [3] (setting [4]) and in data set [3] (setting [5]) were 9.83 mL/min/kg and 10.5 mL/min/kg, respectively. Besides, the Cmax in data set [3] (setting [4]) was found to be 1810 ± 750 ng/mL; in data set [3] (setting [5]), 1740 ± 670 ng/mL. Moreover, the Tmax in data set [3] (setting [4]) was 3.75 ± 1.5 h; in data set [3] (setting [5]), 3.6 ± 1.34 h. The Vd/F is 39.4 ± 6.26 L/kg in data set [3] (setting [4]) and 46.4 ± 16.4 L/kg in data set [3] (setting [5]). In addition, the half-life in data set [3] (setting [4]) is 46.9 ± 6.52 h; in data set [3] (setting [5]), 50.8 ± 10.2 h. Also, the AUC(0-t) in data set [3] (10 mg/kg, LUME 10 mg/kg oral alone (control), rats n=5, mean ± SD) was found to be 16500 ± 2960 ng·h/mL; in data set [3] (setting [5]) it was 15400 ± 3580 ng·h/mL.
In the case of `CC(C)NCC(O)COc1cccc2ccccc12` (centres unmarked) [propranolol], the “basal ATPase activity in the presence of the negative control” value at human P-gp was determined as 0.96.
Take `Clc1ccc2c(N3CCN(CCCN4CCN(c5ccnc6cc(Cl)ccc56)CC4)CC3)ccnc2c1` [PPQ, piperaquine]: the “Accuracy (%) in stability test” value is 99.31% in data set [1] (PPQ/99-411 method, 10 ng/mL, 6 h (BT, bench top, room temperature)); 105.78% in data set [1] (PPQ/99-411 method, 10 ng/mL, 24 h (AS, autosampler)); 106.75% in data set [1] (PPQ/99-411 method, 10 ng/mL, 15 days at -70 °C); 99.51% in data set [1] (PPQ/99-411 method, 10 ng/mL, FT-3 (three freeze/thaw cycles)); 102.13% in data set [1] (PPQ/99-411 method, 400 ng/mL, 6 h (BT, bench top, room temperature)); 102.48% in data set [1] (PPQ/99-411 method, 400 ng/mL, 24 h (AS, autosampler)). The “Accuracy (%) in stability test” value in data set [1] (PPQ/99-411 method, 400 ng/mL, 15 days at -70 °C) came to 103.59%; in data set [1] (PPQ/99-411 method, 400 ng/mL, FT-3 (three freeze/thaw cycles)), 100.98%. Moreover, the “increase of Vd/F of PPQ with 99–411 co-administration” value in data set [3] (oral, rats) stood at 194.49%. The “increase of clearance (Cl/F) of PPQ with 99–411 co-administration” value in data set [3] (oral, rats) was determined as 41.94%. In addition, the “decrease of AUC0-∞ of PPQ in presence of 99–411” value in data set [3] (oral, rats, vs PPQ alone, p = 0.0018) is on record as 61.39%. The “decrease of Cmax of PPQ in presence of 99–411” value in data set [3] (oral, rats, vs PPQ alone, p = 0.0154) is reported as 61.67%. For the same compound, the AUC(0-inf) was 31500 ± 2680 ng·h/mL in data set [3] (setting [6]) and 19400 ± 5290 ng·h/mL in data set [3] (setting [7]). In addition, the CL/F in data set [3] (setting [6]) is 26.7 mL/min/kg; in data set [3] (setting [7]) it was 45.5 mL/min/kg. Besides, the Cmax came out at 890 ± 230 ng/mL in data set [3] (setting [6]) and 540 ± 110 ng/mL in data set [3] (setting [7]). Moreover, the results for the time to peak (Tmax) in data set [3] (setting [6]) and in data set [3] (setting [7]) were 6.6 ± 1.34 h and 6 h, respectively. In addition, the values for the Vd/F in data set [3] (setting [6]) and in data set [3] (setting [7]) were 49 ± 8.38 L/kg and 166 ± 71.7 L/kg, respectively. The half-life is 21.4 ± 4.39 h in data set [3] (setting [6]) and 41.7 ± 11.8 h in data set [3] (setting [7]). The AUC(0-t) in data set [3] (50 mg/kg, PPQ 50 mg/kg oral alone (control), rats n=5, mean ± SD) turned out to be 28100 ± 2790 ng·h/mL; in data set [3] (setting [7]), 17000 ± 5030 ng·h/mL.

The values above are taken from paper PMC4658560, “Assessment of pharmacokinetic compatibility of short acting CDRI candidate trioxane derivative, 99–411, with long acting prescription antimalarials, lumefantrine and piperaquine” (Scientific Reports, 2015).
